According to US20080262266A1, “Method for the Production of Xylyendiamine” (BASF SE, priority 2005, published 2008):
Read-outs that look alike come from different tables or passages of the source.

What was measured:
[1] = 70° C.; cited from earlier work
[2] = solubility of isophthalonitrile (IPN) in organic solvents; type: physicochemical; details: 60° C.

Compound: N#Cc1cccc(C#N)c1 [IPN, 1,3-dicyanobenzene]
- solubility of IPN in MXDA [1]: about 20 % by weight
- solubility of IPN in MXDA ([2]; MXDA): 15 % by weight
- solubility of IPN in THF ([2]; THF): ~19 % by weight
- solubility of IPN in methanol ([2]; methanol): 18 % by weight
